According to patent publication US8722733B2 (XenoPort, Inc., priority 2008, dated 2014):

Tests used:
[1] = Interconversion of the anhydrous and hydrated crystalline forms (XRPD); format: physicochemical
Protocol: X-ray powder diffraction (XRPD) analysis was performed using a PANalytical X'Pert Pro X-ray diffractometer. The X-ray source was Cu-kα1 with output voltage of 45 kV and current of 40 mA. The instrument employed para-focusing Bragg-Brentano geometry with incident divergence and scattering slits set at 1/16° and ⅛°, respectively. 0.04-mm radius soller slits were used for both the incident and diffracted beams to remove axial divergence. Powder samples (9-12 mg) were gently pressed onto a single crystal silicon sample holder to form a smooth surface, and samples were spun at 8 sec/revolution throughout the data acquisition process. The samples were scanned from 2° to 40° (2θ) with a step size of 0.017° (2θ°) and a scan speed of 0.067°/sec. Data acquisition was controlled and analyzed with X'Pert Data Collector Software (version 2.2d) and X'Pert Data Viewer (version 1.2c), respectively.
The anhydrous and hydrated crystalline forms of (2R)-2-phenylcarbonyloxypropyl (2S)-2-amino-3-(3,4-dihydroxyphenyl)propanoate mesylate interconvert depending on the water content of the environment.

[2] = Water sorption/desorption (dynamic vapor sorption); format: physicochemical; conditions: 25° C., humidity cycle 5% RH to 95% RH at 10% RH intervals
Protocol: The hygroscopicity of (2R)-2-phenylcarbonyloxypropyl (2S)-2-amino-3-(3,4-dihydroxyphenyl)propanoate mesylate, hydrate was evaluated during one vapor sorption-desorption cycle using a VTI SGA-100 dynamic vapor sorption analyzer. (2R)-2-Phenylcarbonyloxypropyl (2S)-2-amino-3-(3,4-dihydroxyphenyl)propanoate mesylate, hydrate was first dried at 25° C. for 180 min under a nitrogen atmosphere. The material was considered equilibrated when the weight change during 2 min was less than 0.01%. To evaluate the vapor sorption-desorption at 25° C., the dried (2R)-2-phenylcarbonyloxypropyl (2S)-2-amino-3-(3,4-dihydroxyphenyl)propanoate mesylate, hydrate was exposed to a humidity cycle ramped (and deramped) from 5% RH to 95% RH at 10% RH intervals. At each humidity interval, the material was equilibrated as determined by a less than 0.01% weight change during 5 min.

| SMILES | Crystal form after heating and then room temperature and humidity ([1]; after heating at 70° C., left at room temperature and humidity for 1 day) | Crystal form after heating ([1]; heated from 25° C. to 70° C. at 2° C./min, held at 70° C. for 15 min) | Crystal form after vacuum drying and then room temperature and humidity ([1]; vacuum dried overnight, then 25° C. and 40-60% RH for one day) | Hygroscopicity: vapor sorption-desorption [2] | Time for conversion to the hydrate in the presence of water vapor ([1]; about 25° C., humidity of at least about 60% RH) [h] |
| --- | --- | --- | --- | --- | --- |
| CS(=O)(=O)O.C[C@H](COC(=O)[C@@H](N)Cc1ccc(O)c(O)c1)OC(=O)c1ccccc1.O [(2R)-2-phenylcarbonyloxypropyl (2S)-2-amino-3-(3,4-dihydroxyphenyl)propanoate mesylate, hydrate] | reverts to crystalline (2R)-2-phenylcarbonyloxypropyl (2S)-2-amino-3-(3,4-dihydroxyphenyl)propanoate mesylate, hydrate | converted to a transient/metastable crystalline form | a mixture of crystalline anhydrous and hydrate forms | humidity-dependent reversible sorption and desorption of water vapor | – |
| CS(=O)(=O)O.C[C@H](COC(=O)[C@@H](N)Cc1ccc(O)c(O)c1)OC(=O)c1ccccc1 [compound 1, (2R)-2-phenylcarbonyloxypropyl (2S)-2-amino-3-(3,4-dihydroxyphenyl)propanoate mesylate] | – | – | – | – | ≤ 24 |
